Measurements: ChEMBL document CHEMBL5154936, “Scaffold Hopping Strategy to Identify Prostanoid EP4 Receptor Antagonists for Cancer Immunotherapy” (J Med Chem, 2022)
Converted amounts (≈) assume the structure as drawn.

Columns and labels:
CYP2C9 = CYP2C9 (Homo sapiens, UniProt P11712); assay: Inhibition of CYP2C9 (unknown origin) at 20 uM; type: ADME
[1] = Clearance in BALB/c mouse at 1 mg/kg, iv measured upto 24 hrs by LC-MS/MS analysis; type: ADME, organism-based; details: in vivo
[2] = Metabolic stability in mouse liver microsomes assessed as half life; type: ADME, Microsome
[3] = Cmax in BALB/c mouse at 5 mg/kg, po measured upto 24 hrs by LC-MS/MS analysis; type: ADME, organism-based; design: dose 5 mg/kg, time < 24 hrs, route po; details: in vivo
[4] = Metabolic stability in mouse liver microsomes assessed as intrinsic clearance; type: ADME, Microsome; details: read-out: CLH
[5] = Half life in BALB/c mouse at 1 mg/kg, iv measured upto 24 hrs by LC-MS/MS analysis; type: ADME, organism-based; details: in vivo
[6] = AUC (0 to 24 hrs) in BALB/c mouse at 1 mg/kg, iv measured upto 24 hrs by LC-MS/MS analysis; type: ADME, organism-based; design: dose 1 mg/kg, time < 24 hrs, route iv; details: in vivo
[7] = Oral bioavailability in BALB/c mouse at 5 mg/kg measured upto 24 hrs by LC-MS/MS analysis; type: ADME, organism-based; details: in vivo
[8] = target: T1, Prostaglandin E2 receptor EP1 subtype (Homo sapiens, UniProt P34995); assay: Antagonist activity at human EP1 receptor transfected in CHO/Galpha16 cells preincubated for 15 mins followed by PGE2 addition by calcium flux assay; type: functional, cell-based
T1 sequence (P34995 whole entry): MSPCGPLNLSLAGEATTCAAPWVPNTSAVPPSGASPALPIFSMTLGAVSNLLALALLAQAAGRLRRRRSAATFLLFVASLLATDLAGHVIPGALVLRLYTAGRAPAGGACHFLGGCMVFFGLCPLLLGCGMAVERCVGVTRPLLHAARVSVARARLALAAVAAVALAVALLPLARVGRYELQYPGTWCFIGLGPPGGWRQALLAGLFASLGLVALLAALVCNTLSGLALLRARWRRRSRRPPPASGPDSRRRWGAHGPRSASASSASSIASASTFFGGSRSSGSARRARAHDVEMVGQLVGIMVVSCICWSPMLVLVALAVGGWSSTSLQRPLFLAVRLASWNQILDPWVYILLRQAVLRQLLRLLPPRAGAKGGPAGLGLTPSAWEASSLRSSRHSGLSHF

[9] = Volume of distribution at steady state in BALB/c mouse at 5 mg/kg, po measured upto 24 hrs by LC-MS/MS analysis; type: ADME, organism-based; details: in vivo
[10] = target: Prostaglandin E2 receptor EP4 subtype (Mus musculus, UniProt P32240); assay: Antagonist activity at mouse EP4 receptor transfected in CHO/Galpha16 cells preincubated for 15 mins followed by PGE2 addition by calcium flux assay; type: functional, cell-based
Sequence of Prostaglandin E2 receptor EP4 subtype (P32240 whole entry): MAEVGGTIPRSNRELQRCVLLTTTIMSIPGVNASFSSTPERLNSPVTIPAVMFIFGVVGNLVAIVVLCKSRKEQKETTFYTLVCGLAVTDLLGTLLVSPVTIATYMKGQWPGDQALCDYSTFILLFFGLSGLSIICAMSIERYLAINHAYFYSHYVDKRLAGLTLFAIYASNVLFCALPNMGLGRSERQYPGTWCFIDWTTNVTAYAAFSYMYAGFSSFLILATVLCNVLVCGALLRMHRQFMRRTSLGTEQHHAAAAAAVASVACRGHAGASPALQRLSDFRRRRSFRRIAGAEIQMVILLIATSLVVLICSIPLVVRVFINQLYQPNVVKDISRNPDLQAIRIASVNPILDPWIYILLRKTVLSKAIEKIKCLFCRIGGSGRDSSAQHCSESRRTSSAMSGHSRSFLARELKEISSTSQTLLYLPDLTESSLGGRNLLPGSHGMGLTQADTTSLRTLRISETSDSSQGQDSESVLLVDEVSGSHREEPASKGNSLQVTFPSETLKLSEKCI

CYP2B6 = target: T2, CYP2B6 (Homo sapiens, UniProt P20813); assay: Inhibition of CYP2B6 (unknown origin) at 20 uM; type: ADME
T2 sequence (P20813 whole entry): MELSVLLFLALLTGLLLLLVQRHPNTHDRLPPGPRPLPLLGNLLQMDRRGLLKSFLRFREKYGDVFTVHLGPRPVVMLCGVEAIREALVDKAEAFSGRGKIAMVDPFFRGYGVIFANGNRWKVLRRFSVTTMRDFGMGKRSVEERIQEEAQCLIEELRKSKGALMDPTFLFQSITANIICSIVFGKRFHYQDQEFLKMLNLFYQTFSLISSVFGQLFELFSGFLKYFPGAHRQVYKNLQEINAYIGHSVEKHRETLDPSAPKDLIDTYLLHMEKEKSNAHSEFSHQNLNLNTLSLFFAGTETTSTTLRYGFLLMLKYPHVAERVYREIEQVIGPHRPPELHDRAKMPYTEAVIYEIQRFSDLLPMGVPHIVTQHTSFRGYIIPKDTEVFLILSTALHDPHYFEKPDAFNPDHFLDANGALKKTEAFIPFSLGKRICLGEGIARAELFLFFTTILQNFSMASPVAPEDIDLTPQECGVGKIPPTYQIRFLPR

[11] = Half life in BALB/c mouse at 5 mg/kg, po measured upto 24 hrs by LC-MS/MS analysis; type: ADME, organism-based; details: in vivo
[12] = Clearance in BALB/c mouse at 5 mg/kg, po measured upto 24 hrs by LC-MS/MS analysis; type: ADME, organism-based; details: in vivo
[13] = Metabolic stability in human liver microsomes assessed as intrinsic clearance; type: ADME, Microsome; details: read-out: CLH
[14] = AUC (0 to infinity) in BALB/c mouse at 5 mg/kg, po measured upto 24 hrs by LC-MS/MS analysis; type: ADME, organism-based; design: dose 5 mg/kg, time < 24 hrs, route po; details: in vivo
[15] = Volume of distribution at steady state in BALB/c mouse at 1 mg/kg, iv measured upto 24 hrs by LC-MS/MS analysis; type: ADME, organism-based; details: in vivo, read-out: Vdss
[16] = Kinetic solubility of compound in simulated gastric fluid at pH 1.2 measured after 24 hrs by HPLC analysis; type: physicochemical; details: read-out: Kinetic_solubility
[17] = Kinetic solubility of compound in simulated intestinal fluid at pH 6.8 measured after 24 hrs by HPLC analysis; type: physicochemical; details: read-out: Kinetic_solubility
CYP2D6 = CYP2D6 (Homo sapiens, UniProt P10635); assay: Inhibition of CYP2D6 (unknown origin) at 20 uM; type: ADME
Sequence of CYP2D6 (P10635 whole entry): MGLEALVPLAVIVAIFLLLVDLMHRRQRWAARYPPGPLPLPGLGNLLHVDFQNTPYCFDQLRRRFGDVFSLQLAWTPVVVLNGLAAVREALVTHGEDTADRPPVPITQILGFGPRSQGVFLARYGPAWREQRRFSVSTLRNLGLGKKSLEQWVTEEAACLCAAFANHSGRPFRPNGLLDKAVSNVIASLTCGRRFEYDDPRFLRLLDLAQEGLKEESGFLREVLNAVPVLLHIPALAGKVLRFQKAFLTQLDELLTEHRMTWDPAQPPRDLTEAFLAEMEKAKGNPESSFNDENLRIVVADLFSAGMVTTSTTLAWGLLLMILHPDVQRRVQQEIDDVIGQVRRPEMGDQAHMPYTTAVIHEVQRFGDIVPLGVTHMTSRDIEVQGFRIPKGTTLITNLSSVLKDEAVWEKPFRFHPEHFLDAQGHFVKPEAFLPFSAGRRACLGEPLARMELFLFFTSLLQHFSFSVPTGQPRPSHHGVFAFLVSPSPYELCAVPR

[18] = target: Voltage-gated inwardly rectifying potassium channel KCNH2 (Homo sapiens, UniProt Q12809); assay: Inhibition of human ERG potassium channel transfected in HEK293 cells by whole-cell patch clamp assay; type: toxicity, cell-based
Sequence of Voltage-gated inwardly rectifying potassium channel KCNH2 (Q12809 whole entry): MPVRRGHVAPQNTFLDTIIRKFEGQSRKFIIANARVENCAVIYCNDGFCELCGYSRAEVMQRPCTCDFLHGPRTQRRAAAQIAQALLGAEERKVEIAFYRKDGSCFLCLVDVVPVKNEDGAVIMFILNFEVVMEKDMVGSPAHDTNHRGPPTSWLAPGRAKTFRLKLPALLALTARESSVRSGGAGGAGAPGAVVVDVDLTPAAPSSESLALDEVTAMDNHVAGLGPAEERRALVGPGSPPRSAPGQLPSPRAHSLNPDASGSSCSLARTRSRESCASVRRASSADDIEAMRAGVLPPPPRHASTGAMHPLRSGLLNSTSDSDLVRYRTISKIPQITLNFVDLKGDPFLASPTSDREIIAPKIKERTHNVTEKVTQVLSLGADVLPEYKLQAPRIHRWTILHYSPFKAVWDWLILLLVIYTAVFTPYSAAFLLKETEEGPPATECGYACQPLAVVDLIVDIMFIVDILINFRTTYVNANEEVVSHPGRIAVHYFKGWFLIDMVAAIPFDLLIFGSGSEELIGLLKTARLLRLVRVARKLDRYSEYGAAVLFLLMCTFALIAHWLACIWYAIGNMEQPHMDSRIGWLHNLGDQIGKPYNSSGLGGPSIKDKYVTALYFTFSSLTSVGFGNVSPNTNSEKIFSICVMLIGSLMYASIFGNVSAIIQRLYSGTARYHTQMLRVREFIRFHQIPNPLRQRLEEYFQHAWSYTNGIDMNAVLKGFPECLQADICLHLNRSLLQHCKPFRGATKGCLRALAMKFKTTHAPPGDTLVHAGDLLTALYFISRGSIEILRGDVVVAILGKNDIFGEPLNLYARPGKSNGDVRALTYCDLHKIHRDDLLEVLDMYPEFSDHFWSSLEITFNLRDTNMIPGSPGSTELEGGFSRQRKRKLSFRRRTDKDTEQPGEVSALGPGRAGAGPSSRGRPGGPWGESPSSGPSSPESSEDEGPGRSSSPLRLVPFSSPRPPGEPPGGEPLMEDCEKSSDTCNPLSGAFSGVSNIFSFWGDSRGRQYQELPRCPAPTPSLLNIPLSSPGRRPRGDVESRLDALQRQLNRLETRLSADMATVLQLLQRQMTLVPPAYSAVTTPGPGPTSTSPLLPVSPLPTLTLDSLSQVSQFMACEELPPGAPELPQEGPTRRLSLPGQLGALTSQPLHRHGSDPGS

[19] = AUC (0 to 24 hrs) in BALB/c mouse at 5 mg/kg, po measured upto 24 hrs by LC-MS/MS analysis; type: ADME, organism-based; design: dose 5 mg/kg, time < 24 hrs, route po; details: in vivo
[20] = AUC (0 to infinity) in BALB/c mouse at 1 mg/kg, iv measured upto 24 hrs by LC-MS/MS analysis; type: ADME, organism-based; design: time < 24 hrs, dose 1 mg/kg, route iv; details: in vivo
[21] = Metabolic stability in mouse liver microsomes assessed as parent compound remaining at 10 uM measured after 60 mins; type: ADME, Microsome; details: read-out: Stability
[22] = target: T3, Prostaglandin E2 receptor EP3 subtype (Homo sapiens, UniProt P43115); assay: Antagonist activity at human EP3 receptor transfected in CHO/Galpha16 cells preincubated for 15 mins followed by PGE2 addition by calcium flux assay; type: functional, cell-based
T3 sequence (P43115 whole entry): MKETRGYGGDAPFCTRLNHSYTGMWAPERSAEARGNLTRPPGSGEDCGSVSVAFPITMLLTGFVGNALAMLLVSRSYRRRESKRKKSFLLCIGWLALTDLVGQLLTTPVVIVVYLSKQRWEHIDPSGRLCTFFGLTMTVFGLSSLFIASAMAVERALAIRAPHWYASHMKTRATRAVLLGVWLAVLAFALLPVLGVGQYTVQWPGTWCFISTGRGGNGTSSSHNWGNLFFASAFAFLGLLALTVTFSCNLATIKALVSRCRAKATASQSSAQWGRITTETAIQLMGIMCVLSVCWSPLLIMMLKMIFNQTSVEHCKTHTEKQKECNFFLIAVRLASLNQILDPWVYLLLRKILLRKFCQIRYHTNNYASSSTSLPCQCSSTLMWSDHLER

[23] = Metabolic stability in human liver microsomes assessed as half life; type: ADME, Microsome
CYP2E1 = CYP2E1 (Homo sapiens, UniProt P05181); assay: Inhibition of CYP2E1 (unknown origin) at 20 uM; type: ADME
Sequence of CYP2E1 (P05181 whole entry): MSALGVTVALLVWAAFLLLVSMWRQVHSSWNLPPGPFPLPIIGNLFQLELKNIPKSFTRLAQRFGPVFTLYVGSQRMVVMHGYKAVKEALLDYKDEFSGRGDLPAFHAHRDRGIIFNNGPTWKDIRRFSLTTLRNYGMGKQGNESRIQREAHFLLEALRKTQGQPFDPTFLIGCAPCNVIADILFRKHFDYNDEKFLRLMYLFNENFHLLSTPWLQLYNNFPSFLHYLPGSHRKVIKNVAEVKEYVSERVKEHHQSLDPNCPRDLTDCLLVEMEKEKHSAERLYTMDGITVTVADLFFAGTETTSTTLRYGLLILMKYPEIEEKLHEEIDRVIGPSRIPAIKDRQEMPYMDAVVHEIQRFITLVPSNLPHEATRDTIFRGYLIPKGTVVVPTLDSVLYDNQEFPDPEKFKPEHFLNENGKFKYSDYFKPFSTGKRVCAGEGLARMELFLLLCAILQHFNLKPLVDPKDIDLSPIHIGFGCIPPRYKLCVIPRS

Sequence of CYP2C9 (P11712 whole entry): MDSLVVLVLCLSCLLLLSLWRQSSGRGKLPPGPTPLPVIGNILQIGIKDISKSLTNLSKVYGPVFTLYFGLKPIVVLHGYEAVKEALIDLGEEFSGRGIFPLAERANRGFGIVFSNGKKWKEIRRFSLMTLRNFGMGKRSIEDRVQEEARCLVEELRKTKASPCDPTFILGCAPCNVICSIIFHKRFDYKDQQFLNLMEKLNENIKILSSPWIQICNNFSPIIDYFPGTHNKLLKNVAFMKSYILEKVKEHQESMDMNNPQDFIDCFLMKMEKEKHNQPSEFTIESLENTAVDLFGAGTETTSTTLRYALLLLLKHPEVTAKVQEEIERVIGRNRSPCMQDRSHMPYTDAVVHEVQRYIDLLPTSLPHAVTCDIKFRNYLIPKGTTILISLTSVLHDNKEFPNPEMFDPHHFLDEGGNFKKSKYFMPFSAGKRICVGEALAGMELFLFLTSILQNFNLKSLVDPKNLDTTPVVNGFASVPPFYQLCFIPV

Structure (SMILES) | inhibition at 20 µM (CYP2C9) [%] | clearance [1] [mL/min/kg] | half-life [2] [h] | Cmax [3] [ng/mL] | microsomal CLint [4] [µL/min/mg] | half-life [5] [h] | AUC(0-t) at 24 h [6] [ng·h/mL] | bioavailability [7] [%] | IC50 [8] [µM] | Vdss [9] [L/kg] | IC50 [10] [µM] | inhibition at 20 µM (CYP2B6) [%] | half-life [11] [h] | CL/F [12] [mL/min/kg] | microsomal CLint [13] [µL/min/mg] | AUC(0-inf) [14] [ng·h/mL] | Vd [15] [L/kg] | solubility kinetic at 24 h [16] [µM] | solubility kinetic at 24 h [17] [µM] | inhibition at 20 µM (CYP2D6) [%] | further results
O=C(O)c1ccc(CNC(=O)c2c(Cc3ccc(F)cc3)sc3c2CCOC3)cc1 | 44 | 22.7 | > 2.42 | 982 | < 9.6 | 3.2 | 684 | 61.4 | > 10 | 21.0327 | 0.0243 | 78 | 6.2 | 38.5 | < 9.6 | 2220 | 6.14 | 2.97 (≈ 1.26 µg/mL) | > 200 | 65 | IC50 [18]: > 30 µM; AUC(0-t) at 24 h [19]: 2100 ng·h/mL; AUC(0-inf) [20]: 735 ng·h/mL; remaining at 1 h, 10 µM [21]: 92.1%; IC50 [22]: > 10 µM; half-life [23]: > 2.42 h; inhibition at 20 µM (CYP2E1): 31%
C[C@H](NC(=O)c1c(Cc2cccc(C(F)(F)F)c2)sc2c1CCOC2)c1ccc(C(=O)O)cc1 | 27 | 24.6 | > 2.42 | 664 | < 9.6 | 3.4 | 642 | 52.3 | > 10 | 14.5274 | 0.0028 | 75 | 3.5 | 49.9 | < 9.6 | 1690 | 7.39 | < 1 | 182 (≈ 89.1 µg/mL) | 72 | IC50 [18]: > 30 µM; AUC(0-t) at 24 h [19]: 1680 ng·h/mL; AUC(0-inf) [20]: 683 ng·h/mL; remaining at 1 h, 10 µM [21]: 90.2%; IC50 [22]: > 10 µM; half-life [23]: > 2.42 h; inhibition at 20 µM (CYP2E1): 23%
